# Data from ChEMBL document CHEMBL1201862, “PubChem BioAssay data set” (2004).
# Active and inactive are the calls of the source.
# Key:
# [1] = system: CHO-K1; assay: (§1) Counterscreen for antagonists of the orexin 1 receptor (OX1R; HCRTR1): Homogeneous time resolved fluorescence (HTRF)-based cell-based dose response assay to identify antagonists of the parental CHO-K1 cell line. [Related pubchem assays (depositor defined):AID434989, AID435008, AID463079, AID485270, AID492963, AID492964, AID492965, AID493232, AID504699, AID504701]; assay type: functional; conditions: Cricetulus griseus
# [2] = as §1, with “Fluorescence-based” for “Homogeneous time resolved fluorescence (HTRF)-based”, “cell-based high throughput” for “cell-based”, “CHO” for “CHO-K1”; assay type: functional
# [3] = target: T1, Orexin/Hypocretin receptor type 1 (Homo sapiens, UniProt O43613); assay: Homogeneous Time Resolved Fluorescence (HTRF)-based cell-based high throughput dose response assay for antagonists of the orexin 1 receptor (OX1R; HCRTR1). [Related pubchem assays (depositor defined):AID434989, AID435008, AID463079, AID485270, AID492963, AID492964, AID492965, AID493232, AID504717, AID504718]; assay type: functional
# T1 sequence (O43613 whole entry): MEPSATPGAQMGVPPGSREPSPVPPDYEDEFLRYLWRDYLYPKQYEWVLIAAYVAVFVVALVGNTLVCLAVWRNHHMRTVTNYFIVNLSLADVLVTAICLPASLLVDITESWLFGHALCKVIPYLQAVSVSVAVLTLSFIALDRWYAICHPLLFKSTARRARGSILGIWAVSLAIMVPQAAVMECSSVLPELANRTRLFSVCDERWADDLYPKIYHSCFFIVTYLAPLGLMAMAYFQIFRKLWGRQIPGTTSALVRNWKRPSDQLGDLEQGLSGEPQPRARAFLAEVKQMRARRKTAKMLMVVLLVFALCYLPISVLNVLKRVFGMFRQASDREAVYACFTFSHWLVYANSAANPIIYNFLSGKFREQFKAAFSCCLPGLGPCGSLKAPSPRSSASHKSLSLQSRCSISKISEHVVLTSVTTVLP
# [4] = target: T1, Orexin/Hypocretin receptor type 1; assay: Fluorescence-based cell-based high throughput dose response assay for antagonists of the orexin 1 receptor (OX1R; HCRTR1). [Related pubchem assays (depositor defined):AID434989, AID435008, AID463079, AID485270, AID492963, AID492964, AID492965, AID493232, AID504717, AID504718]; assay type: functional
# [5] = target: T2, Orexin receptor type 2 (Homo sapiens, UniProt O43614); assay: Counterscreen assay for antagonists of the orexin 1 receptor (OX1R; HCRTR1): Fluorescence-based cell-based dose response assay for antagonists of the orexin 2 receptor (OX2R; HCRTR2), run by assay provider.; assay type: functional
# T2 sequence (O43614 whole entry): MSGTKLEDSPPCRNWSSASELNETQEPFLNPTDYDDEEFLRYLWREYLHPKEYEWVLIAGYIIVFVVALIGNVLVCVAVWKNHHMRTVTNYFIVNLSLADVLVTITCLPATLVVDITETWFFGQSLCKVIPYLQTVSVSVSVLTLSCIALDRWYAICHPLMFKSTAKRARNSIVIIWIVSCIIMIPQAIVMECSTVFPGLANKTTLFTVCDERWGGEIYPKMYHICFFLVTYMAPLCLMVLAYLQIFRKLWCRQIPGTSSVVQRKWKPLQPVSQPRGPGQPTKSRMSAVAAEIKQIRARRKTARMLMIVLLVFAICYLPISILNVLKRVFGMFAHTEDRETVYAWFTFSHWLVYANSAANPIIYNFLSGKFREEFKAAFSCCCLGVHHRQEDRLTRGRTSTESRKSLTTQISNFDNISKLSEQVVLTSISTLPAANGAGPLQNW
# [6] = target: T2, Orexin receptor type 2; assay: Counterscreen assay for antagonists of the orexin 1 receptor (OX1R; HCRTR1): Homogeneous Time Resolved Fluorescence (HTRF)-based cell-based dose response assay for antagonists of the orexin 2 receptor (OX2R; HCRTR2), run by assay provider.; assay type: functional
# [7] = target: T3, Short transient receptor potential channel 4 (Mus musculus, UniProt Q9QUQ5); assay: mouse TRPC4 channel inhibitors, dose response, cell-based, HEK293 TRPC4/mu-opioid, Fluo-4 calcium (AID 434942); assay type: functional;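 also: potency of inhibitors blocking the TRPC4 calcium response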
# T3 sequence (Q9QUQ5 whole entry): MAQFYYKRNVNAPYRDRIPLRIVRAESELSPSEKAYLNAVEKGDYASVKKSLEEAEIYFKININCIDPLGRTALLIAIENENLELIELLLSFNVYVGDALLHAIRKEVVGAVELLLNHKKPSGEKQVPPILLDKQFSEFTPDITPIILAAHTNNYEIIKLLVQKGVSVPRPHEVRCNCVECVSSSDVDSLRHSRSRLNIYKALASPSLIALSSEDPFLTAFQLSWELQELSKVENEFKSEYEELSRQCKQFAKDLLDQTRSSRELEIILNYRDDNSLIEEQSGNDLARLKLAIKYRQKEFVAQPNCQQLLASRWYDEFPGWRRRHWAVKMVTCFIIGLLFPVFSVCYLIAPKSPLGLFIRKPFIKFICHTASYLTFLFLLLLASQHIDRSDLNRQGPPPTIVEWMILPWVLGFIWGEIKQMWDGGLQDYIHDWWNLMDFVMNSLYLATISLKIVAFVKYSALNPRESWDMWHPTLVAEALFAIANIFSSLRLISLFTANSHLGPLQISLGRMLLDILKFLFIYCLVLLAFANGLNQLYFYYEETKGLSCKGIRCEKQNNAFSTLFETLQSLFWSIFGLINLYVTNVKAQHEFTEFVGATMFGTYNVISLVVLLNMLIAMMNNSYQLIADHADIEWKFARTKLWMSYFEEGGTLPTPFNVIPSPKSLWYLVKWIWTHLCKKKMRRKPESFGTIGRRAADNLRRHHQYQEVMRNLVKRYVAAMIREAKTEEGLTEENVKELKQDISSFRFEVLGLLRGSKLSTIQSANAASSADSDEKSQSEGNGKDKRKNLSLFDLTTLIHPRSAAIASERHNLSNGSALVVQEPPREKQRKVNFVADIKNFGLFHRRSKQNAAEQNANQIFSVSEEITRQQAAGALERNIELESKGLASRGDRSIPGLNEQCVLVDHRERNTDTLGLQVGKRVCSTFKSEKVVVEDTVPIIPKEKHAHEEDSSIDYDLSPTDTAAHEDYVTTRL
# [8] = target: 26S proteasome non-ATPase regulatory subunit 14 (Homo sapiens, UniProt O00487); assay: inhibition of proteasome subunit RPN11 – biochemical, fluorescence polarization, uHTS hits, confirmation (AID 602368); assay type: functional
# Chain of 26S proteasome non-ATPase regulatory subunit 14 (O00487 whole entry): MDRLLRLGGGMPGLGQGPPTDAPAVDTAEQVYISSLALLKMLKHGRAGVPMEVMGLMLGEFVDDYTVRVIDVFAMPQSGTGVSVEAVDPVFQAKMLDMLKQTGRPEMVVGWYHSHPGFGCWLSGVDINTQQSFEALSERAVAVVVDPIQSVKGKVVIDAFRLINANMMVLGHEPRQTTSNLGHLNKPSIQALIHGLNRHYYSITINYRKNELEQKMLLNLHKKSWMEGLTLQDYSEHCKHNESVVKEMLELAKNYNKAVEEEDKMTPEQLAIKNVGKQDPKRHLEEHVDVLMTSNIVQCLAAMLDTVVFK
# [9] = target: 72 kDa type IV collagenase (Homo sapiens, UniProt P08253); assay: Dose Response validation of uHTS RPN11 inhibitor hits using a MMP-2 Fluorescence assay.; assay type: functional
# Chain of 72 kDa type IV collagenase (P08253 whole entry): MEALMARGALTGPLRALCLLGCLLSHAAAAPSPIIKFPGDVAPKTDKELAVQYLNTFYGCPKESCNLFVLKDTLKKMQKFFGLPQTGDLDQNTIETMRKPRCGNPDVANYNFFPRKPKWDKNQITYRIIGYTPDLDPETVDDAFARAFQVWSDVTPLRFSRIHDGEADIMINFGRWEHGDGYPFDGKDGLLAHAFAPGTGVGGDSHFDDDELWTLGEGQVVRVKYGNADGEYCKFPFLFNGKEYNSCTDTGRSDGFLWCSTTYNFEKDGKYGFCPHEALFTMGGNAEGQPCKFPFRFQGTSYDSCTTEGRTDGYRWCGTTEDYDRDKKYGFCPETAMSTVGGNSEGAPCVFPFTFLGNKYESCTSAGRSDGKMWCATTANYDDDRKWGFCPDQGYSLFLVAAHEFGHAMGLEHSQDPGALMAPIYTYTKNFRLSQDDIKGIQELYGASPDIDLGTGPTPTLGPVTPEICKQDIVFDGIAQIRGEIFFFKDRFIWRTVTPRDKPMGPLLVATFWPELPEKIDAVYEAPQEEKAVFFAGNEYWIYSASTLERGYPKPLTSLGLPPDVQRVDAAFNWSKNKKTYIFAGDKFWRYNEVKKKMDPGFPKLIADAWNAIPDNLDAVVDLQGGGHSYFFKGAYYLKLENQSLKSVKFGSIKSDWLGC
# [10] = target: Prothrombin (Bos taurus, UniProt P00735); assay: thrombin inhibition, dose response, biochemical, fluorescence polarization, uHTS hits (AID 602369); assay type: functional
# [11] = target: T4, High affinity choline transporter 1 (Homo sapiens, UniProt Q9GZV3); assay: CHT activators, dose response, cell-based, 10-point CRC, membrane potential dye (AID 602376); assay type: functional
# T4 sequence (Q9GZV3 whole entry): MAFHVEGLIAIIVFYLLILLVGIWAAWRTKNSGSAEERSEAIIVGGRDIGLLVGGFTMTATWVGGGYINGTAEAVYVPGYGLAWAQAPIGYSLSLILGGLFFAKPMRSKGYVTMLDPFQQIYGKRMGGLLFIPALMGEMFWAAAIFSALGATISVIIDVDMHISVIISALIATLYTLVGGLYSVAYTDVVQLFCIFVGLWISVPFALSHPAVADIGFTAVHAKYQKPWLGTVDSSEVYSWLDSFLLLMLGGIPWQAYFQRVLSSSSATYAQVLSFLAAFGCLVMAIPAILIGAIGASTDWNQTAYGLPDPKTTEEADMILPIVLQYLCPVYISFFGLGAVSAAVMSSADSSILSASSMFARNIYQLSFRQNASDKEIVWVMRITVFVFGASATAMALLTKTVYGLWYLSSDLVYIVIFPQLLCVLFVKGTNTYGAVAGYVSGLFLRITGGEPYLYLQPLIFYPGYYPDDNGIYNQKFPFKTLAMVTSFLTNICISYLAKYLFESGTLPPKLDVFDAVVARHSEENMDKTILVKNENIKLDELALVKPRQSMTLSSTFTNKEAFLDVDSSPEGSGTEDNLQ
# [12] = insulin promoter down-regulators in MIN6 cells, imaging, high-content screening, mouse beta cells (AID 1628); assay type: functional
# [13] = system: BJ; assay: cytotoxicity toward BJ-TERT fibroblasts, dose response, cell-based, RAS-independent, luminescence (AID 1933); assay type: functional; conditions: Homo sapiens
# [14] = cytotoxicity in MIN6 insulinoma cells, dose response, cytotoxicity control, cell-based, mouse insulinoma (AID 2122); assay type: functional;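 also: confirmatory high-throughput counterscreen run to flag cytotoxic compounds; mouse MIN-6 beta cells carrying an insulin promoter eGFP reporter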
# [15] = system: BJ; assay: cells; assay type: functional, cell-based; conditions: Homo sapiens
# [16] = system: BJ; assay: cytotoxicity toward BJ-TERT-LT-ST fibroblasts, dose response, cell-based, RAS-independent, luminescence (AID 1935); assay type: functional; conditions: Homo sapiens;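 also: BJ fibroblasts immortalized with TERT plus LT and ST oncogenes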
# [17] = cytotoxicity toward DRD oncogenic fibroblasts, dose response, cell-based, non-viral oncogenic, luminescence (AID 1934); assay type: functional; conditions: Homo sapiens
# [18] = THP-1 cell cytotoxicity, dose response, cytotoxicity control for non-replicating M. tuberculosis project (AID 489025); assay type: functional
# [19] = HepG2 cell cytotoxicity, dose response, cytotoxicity control for non-replicating M. tuberculosis project (AID 489018); assay type: functional; conditions: Mycobacterium tuberculosis
# [20] = target: T5, Ubiquitin-conjugating enzyme E2 N (Homo sapiens, UniProt P61088); assay type: functional;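 also: Dose-response confirmation in a TR-FRET assay detecting UBC13-driven polyubiquitin chain formation, inhibition measured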
# T5 sequence (P61088 whole entry): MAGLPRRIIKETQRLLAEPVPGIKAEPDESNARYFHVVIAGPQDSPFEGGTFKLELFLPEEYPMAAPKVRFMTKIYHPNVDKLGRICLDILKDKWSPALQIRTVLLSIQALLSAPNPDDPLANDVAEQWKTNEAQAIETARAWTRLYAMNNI
# [21] = Vero E6 cell cytotoxicity, dose response, cytotoxicity control for non-replicating M. tuberculosis project, secondary assay (AID 492998); assay type: functional, VeroE6; conditions: Vero C1008
# [22] = cells; assay type: functional
# [23] = system: BJ; assay: cytotoxicity toward Ras-transformed BJeLR fibroblasts, dose response, cell-based, alamar blue fluorescence, cherrypicked samples (AID 2631); assay type: functional; conditions: Homo sapiens;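 also: confirmatory dose-response assay in RAS-dependent BJ fibroblasts engineered with TERT, LT and ST, with cytotoxicity read by fluorescence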
# [24] = Fluorescence-based cell-based high throughput dose response assay for inhibitors of the interaction of nucleotide-binding oligomerization domain containing 2 (NOD2) and the receptor-interacting serine-threonine kinase 2 (RIPK2).; assay type: functional; conditions: Homo sapiens
# [25] = target: Beta Lactamase (Pseudomonas aeruginosa, UniProt Q932Y6); assay: beta-lactamase reporter inhibitor potency, dose response, artefact control for NOD2-RIPK2 interaction inhibitor project, BLA reporter cells, FRET fluorescence (AID 651552); assay type: functional, cell-based
# Chain of Beta Lactamase (Q932Y6 whole entry): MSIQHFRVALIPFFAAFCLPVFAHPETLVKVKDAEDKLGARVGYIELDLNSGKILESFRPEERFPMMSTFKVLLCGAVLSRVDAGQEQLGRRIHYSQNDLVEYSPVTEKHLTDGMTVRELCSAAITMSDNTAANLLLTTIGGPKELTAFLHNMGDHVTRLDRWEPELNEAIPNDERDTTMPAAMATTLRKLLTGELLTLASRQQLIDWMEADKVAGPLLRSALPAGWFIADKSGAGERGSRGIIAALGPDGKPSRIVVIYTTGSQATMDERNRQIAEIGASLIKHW
smiles,measurement,setting,value
COc1ccc(-c2nc3ccccc3s2)cc1O,IC50,[1],> 66.2 µM (inactive)
same,IC50,[2],> 49.8 µM (inactive)
same,IC50,[3],3.25 µM (active)
same,IC50,[4],9.38 µM (active)
same,IC50,[5],56 µM (inactive)
same,IC50,[6],9.41 µM (active)
CC[n+]1c(/C=C/Nc2ccccc2)oc2ccc(OC)cc21,EC50,[7],3.35 µM (active)
same,IC50,[8],23.2 µM (active)
same,IC50,[9],> 100 µM (inactive)
same,IC50,[10],55.6 µM (active)
COc1ccc(C(CCNCc2ccc(OC)c(OC)c2)c2ccc(F)cc2)cc1 (configuration not stated),EC50,[11],20.9 µM (active)
CCCCCOc1ccc(Br)cc1/C(C)=N/NC1=NCCN1,IC50,[12],1.6 µM (active)
same,EC50,[13],2.99 µM (active)
same,IC50,[14],1.26 µM (active)
same,EC50,[15],8.5 µM (active)
same,EC50,[16],4.48 µM (inconclusive)
same,EC50,[17],5.8 µM (active)
same,CC50,[18],2.09 µM (active)
same,CC50,[19],11.3 µM (active)
same,IC50,[20],> 20 µM (inactive)
same,CC50,[21],5.08 µM (active)
same,IC50,[22],21.4 µM (active)
same,EC50,[23],647 nM (active)
same,EC50,[11],14.8 µM (active)
same,IC50,[24],39.9 µM (inactive)
same,IC50,[25],49.8 µM (inactive)
COc1ccc2c(Cl)c(C(=O)N/N=C/c3c(C)[nH]c4ccccc34)sc2c1,IC50,[1],> 66.2 µM (inactive)
same,IC50,[2],> 49.8 µM (inactive)
same,IC50,[3],2.04 µM (active)
same,IC50,[4],6.57 µM (active)
same,IC50,[5],23.2 µM (inactive)
same,IC50,[6],> 50 µM (inactive)
